Results from patent US8658642B2 (Axikin Pharmaceuticals, Inc., priority 2009, dated 2014).

Target: T1, CCR3 (Homo sapiens, UniProt P51677)
T1 sequence (P51677 1-355): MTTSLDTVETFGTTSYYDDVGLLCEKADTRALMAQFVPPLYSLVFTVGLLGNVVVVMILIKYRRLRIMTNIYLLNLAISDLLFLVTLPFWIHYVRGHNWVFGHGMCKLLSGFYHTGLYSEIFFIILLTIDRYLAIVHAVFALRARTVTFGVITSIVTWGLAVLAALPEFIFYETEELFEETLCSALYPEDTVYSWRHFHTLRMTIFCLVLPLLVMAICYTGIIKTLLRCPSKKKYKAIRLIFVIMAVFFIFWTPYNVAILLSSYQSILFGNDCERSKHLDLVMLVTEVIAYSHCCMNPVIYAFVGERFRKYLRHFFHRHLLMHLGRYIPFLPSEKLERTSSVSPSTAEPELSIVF
Assay: CCR3 receptor binding assay ([125I]-labeled human eotaxin/CCL11 displacement on cells)
Conditions: 0.1 nM [125I]-labeled human eotaxin/CCL11, 2×10^5 cells/well, 60 min at room temperature
Protocol: CCR3 Receptor Binding Assay
Cells were washed once with PBS and resuspended in a binding buffer (25 mM HEPES pH 7.6, 5 mM MgCl2, 1 mM CaCl2, 0.5% BSA, 0.1% NaN3). […] of cell suspension (2×10^5 cells/well) and 0.1 nM [^125I]-labeled human eotaxin/CCL11 (2000 Ci/mmol specific activity) were mixed in a 96-well U-bottom polypropylene plate, and incubated for 60 min at room temperature for the binding reaction. The cell suspension was then transferred to a filtration plate (#MAFB, Millipore), and washed 3 times with the binding buffer containing 0.5 M NaCl, scintillant added, and the radioactivity was counted on a TopCount (Packard). For the determination of non-specific binding, the cell suspension and [^125I]-labeled human eotaxin/CCL11 were incubated in the presence of 500 nM of unlabeled human eotaxin/CCL11. See, lino et al., “Molecular cloning and functional characterization of cynomolgus monkey (Macaca fascicularis) CC chemokine receptor, CCR3,” Cytokine 2002, 19, 276-286.

Row | Structure (SMILES) | Ki [µM]
1 | CCOC(=O)CCNC(=S)N1CCN(S(=O)(=O)c2cc(C#N)ccc2Oc2cc(Cl)cc(Cl)c2)CC1 [Compound 143] | 0.05 to 0.5
2 | N#Cc1ccc(Oc2cc(Cl)cc(Cl)c2)c(S(=O)(=O)N2CCN(C(=S)Nc3ccccc3)CC2)c1 [Compound 144] | ≤ 0.05
3 | N#Cc1ccc(Oc2cc(Cl)cc(Cl)c2)c(S(=O)(=O)N2CCN(C(=S)NC(=O)c3ccccc3)CC2)c1 [Compound 145] | ≤ 0.05
4 | CSCCCNC(=S)N1CCN(S(=O)(=O)c2cc(C#N)ccc2Oc2cc(Cl)cc(Cl)c2)CC1 [Compound 146] | ≤ 0.05
5 | N#Cc1ccc(Oc2cc(Cl)cc(Cl)c2)c(S(=O)(=O)N2CCN(C(=S)NC(=O)/C=C/c3ccccc3)CC2)c1 [Compound 147] | > 5
6 | N#CCC(=O)N1CCN(S(=O)(=O)c2cc(C#N)ccc2Oc2cc(Cl)cc(Cl)c2)CC1 [Compound 148] | 0.05 to 0.5
7 | N#Cc1ccc(Oc2cc(Cl)cc(Cl)c2)c(S(=O)(=O)N2CCN(C(=S)NCc3cccc(Cl)c3)CC2)c1 [Compound 149] | > 5
8 | C=CNC(=O)N1CCN(S(=O)(=O)c2cc(C#N)ccc2Oc2cc(Cl)cc(Cl)c2)CC1 [Compound 150] | > 5
9 | CC(C)CC(=O)N1CCN(S(=O)(=O)c2cc([N+](=O)[O-])ccc2Sc2cc(Cl)ccc2Cl)CC1 [Compound 152, 1-(4-(2-(2,5-Dichlorophenylthio)-5-nitrophenylsulfonyl)piperazin-1-yl)-3-methylbutan-1-one] | > 5
10 | O=C(c1ccc(C(F)(F)F)cc1)N1CCN(S(=O)(=O)c2cc([N+](=O)[O-])ccc2Sc2cc(Cl)ccc2Cl)CC1 [Compound 153, (4-(2-(2,5-Dichlorophenylthio)-5-nitrophenylsulfonyl)piperazin-1-yl)(4-(trifluoromethyl)phenyl)methanone] | > 5
11 | N/C(=N\[N+](=O)[O-])N1CCN(S(=O)(=O)c2cc([N+](=O)[O-])ccc2Oc2cc(Cl)cc(Cl)c2)CC1 [Compound 154] | > 5
12 | N#Cc1ccc(Oc2cc(Cl)cc(Cl)c2)c(S(=O)(=O)N2CCN(C(=O)Oc3ccc([N+](=O)[O-])cc3)CC2)c1 [Compound 155] | > 5
13 | COc1ccc(OC(=O)N2CCN(S(=O)(=O)c3cc(C#N)ccc3Oc3cc(Cl)cc(Cl)c3)CC2)cc1 [Compound 156] | > 5
14 | Cc1ccc(OC(=O)N2CCN(S(=O)(=O)c3cc(C#N)ccc3Oc3cc(Cl)cc(Cl)c3)CC2)cc1 [Compound 157] | > 5
15 | N#Cc1ccc(Oc2cc(Cl)cc(Cl)c2)c(S(=O)(=O)N2CCN(C(=O)OCCCCCl)CC2)c1 [Compound 158] | > 5
16 | C=CCOC(=O)N1CCN(S(=O)(=O)c2cc(C#N)ccc2Oc2cc(Cl)cc(Cl)c2)CC1 [Compound 159] | > 5
17 | O=C(CCCCl)N1CCN(S(=O)(=O)c2cc([N+](=O)[O-])ccc2Sc2cc(Cl)ccc2Cl)CC1 [Compound 160, 4-Chloro-1-(4-(2-(2,5-dichlorophenylthio)-5-nitrophenylsulfonyl)piperazin-1-yl)butan-1-one] | > 5
18 | O=C(C1CCC1)N1CCN(S(=O)(=O)c2cc([N+](=O)[O-])ccc2Sc2cc(Cl)ccc2Cl)CC1 [Compound 161, Cyclobutyl(4-(2-(2,5-dichlorophenylthio)-5-nitrophenylsulfonyl)piperazin-1-yl)methanone] | > 5

Row | Structure (SMILES) | Ki [µM]
19 | O=C(C1CCCCC1)N1CCN(S(=O)(=O)c2cc([N+](=O)[O-])ccc2Sc2cc(Cl)ccc2Cl)CC1 [Compound 162, Cyclohexyl(4-(2-(2,5-dichlorophenylthio)-5-nitrophenylsulfonyl)piperazin-1-yl)methanone] | > 5
20 | O=C(c1ccccc1)N1CCN(S(=O)(=O)c2cc([N+](=O)[O-])ccc2Sc2cc(Cl)ccc2Cl)CC1 [Compound 163, (4-(2-(2,5-Dichlorophenylthio)-5-nitrophenylsulfonyl)piperazin-1-yl)(phenyl)methanone] | > 5
21 | O=C(c1ccc(Cl)cc1)N1CCN(S(=O)(=O)c2cc([N+](=O)[O-])ccc2Sc2cc(Cl)ccc2Cl)CC1 [Compound 164, (4-Chlorophenyl)(4-(2-(2,5-dichlorophenylthio)-5-nitrophenylsulfonyl)-piperazin-1-yl)methanone] | > 5
22 | COc1ccc(C(=O)N2CCN(S(=O)(=O)c3cc([N+](=O)[O-])ccc3Sc3cc(Cl)ccc3Cl)CC2)cc1 [Compound 165, (4-Methoxyphenyl)(4-(2-(2,5-dichlorophenylthio)-5-nitrophenylsulfonyl)-piperazin-1-yl)methanone] | > 5
23 | Cc1ccc(C)c(Sc2ccc([N+](=O)[O-])cc2S(=O)(=O)N2CCN(C(=O)c3ccccc3)CC2)c1 [Compound 172, (4-(2-(2,5-Dimethylphenylthio)-5-nitrophenylsulfonyl)piperazin-1-yl)(phenyl)methanone] | > 5
24 | Cc1ccc(C)c(Sc2ccc([N+](=O)[O-])cc2S(=O)(=O)N2CCN(C(=O)c3ccc(Cl)cc3)CC2)c1 [Compound 173, (4-Chlorophenyl)(4-(2-(2,5-dimethylphenylthio)-5-nitrophenylsulfonyl)-piperazin-1-yl)methanone] | > 5
25 | COc1ccc(C(=O)N2CCN(S(=O)(=O)c3cc([N+](=O)[O-])ccc3Sc3cc(C)ccc3C)CC2)cc1 [Compound 174, (4-(2-(2,5-Dimethylphenylthio)-5-nitrophenylsulfonyl)piperazin-1-yl)(4-methoxyphenyl)methanone] | > 5
26 | CC(C)CC(=O)N1CCN(S(=O)(=O)c2cc([N+](=O)[O-])ccc2Oc2cc(Cl)ccc2Cl)CC1 [Compound 177, 1-(4-(2-(2,5-Dichlorophenoxy)-5-nitrophenylsulfonyl)piperazin-1-yl)-3-methylbutan-1-one] | > 5
27 | O=C(c1ccccc1)N1CCN(S(=O)(=O)c2cc([N+](=O)[O-])ccc2Oc2cc(Cl)ccc2Cl)CC1 [Compound 182, (4-(2-(2,5-Dichlorophenoxy)-5-nitrophenylsulfonyl)piperazin-1-yl)(phenyl)methanone] | > 5
28 | COc1ccc(C(=O)N2CCN(S(=O)(=O)c3cc([N+](=O)[O-])ccc3Oc3cc(Cl)ccc3Cl)CC2)cc1 [Compound 184, (4-(2-(2,5-Dichlorophenoxy)-5-nitrophenylsulfonyl)piperazin-1-yl)(4-methoxyphenyl)methanone] | > 5
29 | O=C(c1ccco1)N1CCN(S(=O)(=O)c2cc([N+](=O)[O-])ccc2Oc2cc(Cl)ccc2Cl)CC1 [Compound 185, (4-(2-(2,5-Dichlorophenoxy)-5-nitrophenylsulfonyl)piperazin-1-yl)(furan-2-yl)methanone] | > 5
30 | COc1ccc(C(=O)N2CCN(S(=O)(=O)c3cc([N+](=O)[O-])ccc3Oc3cc(C)ccc3C)CC2)cc1 [Compound 189, (4-(2-(2,5-Dimethylphenoxy)-5-nitrophenylsulfonyl)piperazin-1-yl)(4-methoxyphenyl)methanone] | > 5
31 | Cc1ccc(C)c(Oc2ccc([N+](=O)[O-])cc2S(=O)(=O)N2CCN(C(=O)c3ccco3)CC2)c1 [Compound 190, (4-(2-(2,5-Dimethylphenoxy)-5-nitrophenylsulfonyl)piperazin-1-yl)(furan-2-yl)methanone] | > 5
32 | C=CCNC(=O)N1CCN(S(=O)(=O)c2cc([N+](=O)[O-])ccc2Sc2cc(Cl)ccc2Cl)CC1 [Compound 191, N-Allyl-4-(2-(2,5-dichlorophenylthio)-5-nitrophenylsulfonyl)piperazine-1-carboxamide] | ≤ 0.05
33 | Cc1ccc(NC(=O)N2CCN(S(=O)(=O)c3cc([N+](=O)[O-])ccc3Sc3cc(Cl)ccc3Cl)CC2)cc1 [Compound 193, 4-(2-(2,5-Dichlorophenylthio)-5-nitrophenylsulfonyl)-N-p-tolylpiperazine-1-carboxamide] | > 5
34 | N#Cc1ccc(NC(=O)N2CCN(S(=O)(=O)c3cc([N+](=O)[O-])ccc3Sc3cc(Cl)ccc3Cl)CC2)cc1 [Compound 194, N-(4-Cyanophenyl)-4-(2-(2,5-dichlorophenylthio)-5-nitrophenylsulfonyl)-piperazine-1-carboxamide] | > 5
35 | O=C(Nc1ccc([N+](=O)[O-])cc1)N1CCN(S(=O)(=O)c2cc([N+](=O)[O-])ccc2Sc2cc(Cl)ccc2Cl)CC1 [Compound 195, 4-(2-(2,5-Dichlorophenylthio)-5-nitrophenylsulfonyl)-N-(4-nitrophenyl)-piperazine-1-carboxamide] | > 5
36 | CCOC(=O)CCNC(=S)N1CCN(S(=O)(=O)c2cc([N+](=O)[O-])ccc2Sc2cc(Cl)ccc2Cl)CC1 [Compound 198] | ≤ 0.05

System: not given
Assay: not given
Conditions: not given

Row | Structure (SMILES) | melting point [°C]
37 | O=C(c1ccco1)N1CCN(S(=O)(=O)c2cc([N+](=O)[O-])ccc2Sc2cc(Cl)ccc2Cl)CC1 [Compound 166, (4-(2-(2,5-Dichlorophenylthio)-5-nitrophenylsulfonyl)piperazin-1-yl)(furan-2-yl)methanone] | 199 to 202
38 | Cc1ccc(C)c(Sc2ccc([N+](=O)[O-])cc2S(=O)(=O)N2CCN(C(=O)c3ccccc3)CC2)c1 [Compound 172, (4-(2-(2,5-Dimethylphenylthio)-5-nitrophenylsulfonyl)piperazin-1-yl)(phenyl)methanone] | 190 to 193
39 | O=C(c1ccccc1)N1CCN(S(=O)(=O)c2cc([N+](=O)[O-])ccc2Oc2cc(Cl)ccc2Cl)CC1 [Compound 182, (4-(2-(2,5-Dichlorophenoxy)-5-nitrophenylsulfonyl)piperazin-1-yl)(phenyl)methanone] | 206 to 209
